Measured values from article PMC10353187, “Discovery of a new potent oxindole multi-kinase inhibitor among a series of designed 3-alkenyl-oxindoles with ancillary carbonic anhydrase inhibitory activity as antiproliferative agents” (BMC Chemistry, 2023).

Key:
hCA II = hCA II (Homo sapiens, UniProt P00918); assay: Stopped flow CO2 hydrase assay
hCA XII = hCA XII (Homo sapiens, UniProt O43570); assay: Stopped flow CO2 hydrase assay; settings: for Selectivity ratio I/XII: Ki hCA I / Ki hCA XII; for Selectivity ratio II/XII: Ki hCA II / Ki hCA XII
hCA XII, sequence (O43570 25-354): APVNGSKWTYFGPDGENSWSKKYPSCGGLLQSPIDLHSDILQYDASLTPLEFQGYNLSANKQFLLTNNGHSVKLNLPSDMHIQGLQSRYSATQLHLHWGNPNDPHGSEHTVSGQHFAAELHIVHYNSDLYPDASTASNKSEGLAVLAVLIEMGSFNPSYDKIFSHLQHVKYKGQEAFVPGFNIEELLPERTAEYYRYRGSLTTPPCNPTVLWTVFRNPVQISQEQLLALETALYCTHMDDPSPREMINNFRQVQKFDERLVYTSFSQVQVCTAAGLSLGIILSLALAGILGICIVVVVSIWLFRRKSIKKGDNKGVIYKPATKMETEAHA

hCA IX = hCA IX (Homo sapiens, UniProt Q16790); assay: Stopped flow CO2 hydrase assay; settings: for Selectivity ratio I/IX: Ki hCA I / Ki hCA IX; for Selectivity ratio II/IX: Ki hCA II / Ki hCA IX
hCA I = hCA I (Homo sapiens, UniProt P00915); assay: Stopped flow CO2 hydrase assay
hCA I, sequence (P00915 whole entry): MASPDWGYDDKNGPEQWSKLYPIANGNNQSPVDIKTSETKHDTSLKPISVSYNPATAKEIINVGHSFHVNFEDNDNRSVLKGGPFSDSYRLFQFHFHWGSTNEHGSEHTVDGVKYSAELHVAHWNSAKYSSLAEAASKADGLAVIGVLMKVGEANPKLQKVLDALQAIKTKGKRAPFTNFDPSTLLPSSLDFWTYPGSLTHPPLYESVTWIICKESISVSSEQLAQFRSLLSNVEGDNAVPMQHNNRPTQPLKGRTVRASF

UO-31 = assay: NCI-60 single-dose antiproliferative assay (SRB); assay type: cell-based, human; settings: Homo sapiens, UO-31, 10 μM single dose; UO-31, Renal cancer; read-out: Cell Growth inhibition Percent
Description: (§1) From the newly synthesized compounds, eleven compounds (4c, 4d, 5, 9a, 9b, 11a, 11b, 13b, 13c, 15b, and 15c) were selected by the National Cancer Institute (NCI) Developmental Therapeutics Program (DTP), Bethesda, Maryland, USA for the in vitro anti-proliferative activity evaluation. The selected compounds were examined at 10 μM dose against the NCI 60-cell line panel. This panel consists of nine cell line groups of leukemia, non-small cell lung carcinoma (NSCLC), melanoma, colon, CNS, ovarian, renal, prostate, and breast cancers. The results are reported as mean-graph of the percent growth relative to control and presented as percentage growth inhibition (GI%), furthermore, mean GI% of each compound over all panel cell lines was calculated (Table 1; Additional file 1; S3: In vitro biological activity).
(§2) From the newly synthesized compounds, eleven compounds were selected by the National Cancer Institute (NCI) Developmental Therapeutics Program (DTP), Bethesda, Maryland, USA for the in vitro anti-proliferative activity evaluation (For further details see supplementary materials).
(§3) NCI In-vitro Cancer Screening is a two-phase procedure that starts with the assessment of all compounds against the sixty NCI cell line panel depicting leukemia, NSCLC, CNS cancer, melanoma, prostate cancer, breast cancer, renal cancer, colon cancer and ovarian cancer cell lines at a single point of 10μM. The output from the single-dose screen is reportable as a mean graph.
(§4) The human tumor cell lines of the cancer screening panel were grown in RPMI 1640 medium containing 5% fetal bovine serum and 2 mM L-glutamine. For a typical screening experiment, cells were inoculated into 96 well microtiter plates in […] at plating densities ranging from 5000 to 40,000 cells/well depending on the doubling time of individual cell lines. After cell inoculation, the microtiter plates were incubated at 37 °C, 5% CO2, 95% air and 100% relative humidity for 24 h prior to addition of experimental drugs. After 24 h, two plates of each cell line were fixed in situ with trichloroacetic acid (TCA), to represent a measurement of the cell population for each cell line at the time of drug addition (Tz). Experimental drugs were solubilized in dimethyl sulfoxide at 400-fold the desired final maximum test concentration and stored frozen prior to use. At the time of drug addition, an aliquot of frozen concentrate was thawed and diluted to twice the desired final maximum test concentration with complete medium containing 50 µg/ml gentamicin. Aliquot of 100 µl of the drug dilution was added to the appropriate microtiter wells already containing 100 µl of medium, resulting in the required final drug concentration (10 µM). Triplicate wells were prepared for each individual dose. Following drug addition, the plates were incubated for an additional 48 h at 37 °C, 5% CO2, 95% air, and 100% relative humidity. For adherent cells, the assay was terminated by the addition of cold TCA. Cells were fixed in situ by the gentle addition of 50 µl of cold 50% (w/v) TCA (final concentration, 10% TCA) and incubated for 60 min at 4 °C. The supernatant was discarded, and the plates were washed five times with tap water and air dried. Sulforhodamine B (SRB) solution (100 µl) at 0.4% (w/v) in 1% acetic acid was added to each well, and plates were incubated for 10 min at room temperature. After staining, unbound dye was removed by washing five times with 1% acetic acid and the plates were air dried. Bound stain was subsequently solubilized with 10 mM trizma base, and the absorbance was read on an automated plate reader at a wavelength of 515 nm. For suspension cells, the methodology was the same except that the assay was terminated by fixing settled cells at the bottom of the wells by gently adding 50 µl of 80% TCA (final concentration, 16% TCA). […]

CAKI-1 = assay: NCI-60 single-dose antiproliferative assay (SRB); assay type: cell-based; settings: Homo sapiens; 10 μM single dose; CAKI-1, Renal cancer; read-out: Cell Growth inhibition Percent
Description: as §1, §2, §3, §4

OVCAR-8 = assay: NCI-60 single-dose antiproliferative assay (SRB); assay type: cell-based; settings: Homo sapiens; 10 μM single dose; OVCAR-8, Ovarian Cancer; read-out: Cell Growth inhibition Percent
Description: as §1, §2, §3, §4

HOP-62 = assay: NCI-60 single-dose antiproliferative assay (SRB); assay type: cell-based; settings: Homo sapiens; 10 μM single dose; HOP-62, Non-small cell lung cancer; read-out: Cell Growth inhibition Percent
Description: as §1, §2, §3, §4

NCI-H522 = assay: NCI-60 single-dose antiproliferative assay (SRB); assay type: cell-based; settings: Homo sapiens; 10 μM single dose; NCI-H522, Non-small cell lung cancer; read-out: Cell Growth inhibition Percent
Description: as §1, §2, §3, §4

ACHN = assay: NCI-60 single-dose antiproliferative assay (SRB); assay type: cell-based; settings: Homo sapiens, 10 μM single dose, Renal cancer, read-out: Cell Growth inhibition Percent
Description: as §1, §2, §3, §4

MCF7 = assay: NCI-60 single-dose antiproliferative assay (SRB); assay type: cell-based; settings: Homo sapiens; 10 μM single dose; MCF7, Breast cancer; read-out: Cell Growth inhibition Percent
Description: as §1, §2, §3, §4

SNB-75 = assay: NCI-60 single-dose antiproliferative assay (SRB); assay type: cell-based; settings: Homo sapiens; 10 μM single dose; SNB-75, CNS cancer; read-out: Cell Growth inhibition Percent
Description: as §1, §2, §3, §4

HOP-92 = assay: NCI-60 single-dose antiproliferative assay (SRB); assay type: cell-based; settings: Homo sapiens; 10 μM single dose; HOP-92, Non-small cell lung cancer; read-out: Cell Growth inhibition Percent
Description: as §1, §2, §3, §4

EKVX = assay: NCI-60 single-dose antiproliferative assay (SRB); assay type: cell-based; settings: Homo sapiens, 10 μM single dose, Non-small cell lung cancer, read-out: Cell Growth inhibition Percent
Description: as §1, §2, §3, §4

NCI-H23 = assay: NCI-60 single-dose antiproliferative assay (SRB); assay type: cell-based; settings: Homo sapiens; 10 μM single dose; NCI-H23, Non-small cell lung cancer; read-out: Cell Growth inhibition Percent
Description: as §1, §2, §3, §4

HCT-116 = assay: NCI-60 single-dose antiproliferative assay (SRB); assay type: cell-based; settings: Homo sapiens; 10 μM single dose; HCT-116, Colon cancer; read-out: Cell Growth inhibition Percent
Description: as §1, §2, §3, §4

NCI-H226 = assay: NCI-60 single-dose antiproliferative assay (SRB); assay type: cell-based; settings: Homo sapiens; 10 μM single dose; NCI-H226, Non-small cell lung cancer; read-out: Cell Growth inhibition Percent
Description: as §1, §2, §3, §4

PC-3 = assay: NCI-60 single-dose antiproliferative assay (SRB); assay type: cell-based; settings: Homo sapiens; 10 μM single dose; PC-3, Prostate cancer; read-out: Cell Growth inhibition Percent
Description: as §1, §2, §3, §4

T-47D = assay: NCI-60 single-dose antiproliferative assay (SRB); assay type: cell-based; settings: Homo sapiens, T47D, 10 μM single dose, Breast cancer, read-out: Cell Growth inhibition Percent
Description: as §1, §2, §3, §4

SR = assay: NCI-60 single-dose antiproliferative assay (SRB); assay type: cell-based; settings: Homo sapiens, 10 μM single dose, Leukemia, read-out: Cell Growth inhibition Percent
Description: as §1, §2, §3, §4

KM12 = assay: NCI-60 single-dose antiproliferative assay (SRB); assay type: cell-based; settings: Homo sapiens; 10 μM single dose; KM12, Colon cancer; read-out: Cell Growth inhibition Percent
Description: as §1, §2, §3, §4

HCT-15 = assay: NCI-60 single-dose antiproliferative assay (SRB); assay type: cell-based; settings: Homo sapiens; 10 μM single dose; HCT-15, Colon cancer; read-out: Cell Growth inhibition Percent
Description: as §1, §2, §3, §4

SN12C = assay: NCI-60 single-dose antiproliferative assay (SRB); assay type: cell-based; settings: Homo sapiens, 10 μM single dose, Renal cancer, read-out: Cell Growth inhibition Percent
Description: as §1, §2, §3, §4

SK-MEL-5 = assay: NCI-60 single-dose antiproliferative assay (SRB); assay type: cell-based; settings: Homo sapiens; 10 μM single dose; SK-MEL-5, Melanoma; read-out: Cell Growth inhibition Percent
Description: as §1, §2, §3, §4

K-562 = assay: NCI-60 single-dose antiproliferative assay (SRB); assay type: cell-based; settings: Homo sapiens, K562; 10 μM single dose; K-562, Leukemia; read-out: Cell Growth inhibition Percent
Description: as §1, §2, §3, §4

[1] = Fig. 2; read-out: cytotoxicity average IC50; cited from earlier work
FGFRI = settings: FGFR-1, inhibitor co-crystallized in PDB ID: 4V01; ref 5 (supplement); read-out: IC50; cited from earlier work

| SMILES | Ki (hCA II) [µM] | melting point [°C] | Ki (hCA XII) [nM] | Ki (hCA IX) [nM] | Ki (hCA I) [µM] | Selectivity ratio I/XII (hCA XII) | Selectivity ratio II/XII (hCA XII) | Selectivity ratio I/IX (hCA IX) | Selectivity ratio II/IX (hCA IX) | other results |
| --- | --- | --- | --- | --- | --- | --- | --- | --- | --- | --- |
| O=C1Nc2ccccc2C1=CNC1=NS(=O)(=O)c2ccccc21 [Compound 4a, 3-{[(1,1-Dioxidobenzo[d]isothiazol-3-yl)amino]methylene}indolin-2-one] | 8.95 | 195 to 199 | > 10000 | > 10000 | > 10 |  |  |  |  |  |
| O=C1Nc2ccccc2C1=CNc1ccc(S(=O)(=O)Nc2ncccn2)cc1 [Compound 4b, 4-{[(2-Oxoindolin-3-ylidene)methyl]amino}-N-(pyrimidin-2-yl)benzenesulfonamide] | > 10 | 238 to 240 | > 10000 | > 10000 | > 10 |  |  |  |  |  |
| NS(=O)(=O)OC=C1C(=O)Nc2ccccc21 [Compound 7, (2-Oxoindolin-3-ylidene)methyl sulfamate] | 5.58 | 165 to 170 | 133 | 941 | 6.24 | 46.89 | 41.97 | 6.63 | 5.93 |  |
| NS(=O)(=O)c1ccc(NC(=O)c2ccc(NC=C3C(=O)Nc4ccccc43)cc2)cc1 [Compound 9a, 4-{[(2-Oxoindolin-3-ylidene)methyl]amino}-N-(4-sulfamoylphenyl)benzamide] | 0.313 |  | 59.4 | 68.8 | 0.332 | 5.59 | 5.27 | 4.83 | 4.55 | inhibition at 10 µM (UO-31): 18%; inhibition at 10 µM (CAKI-1): 8.65%; inhibition at 10 µM (OVCAR-8): 0.63%; inhibition at 10 µM (HOP-62): 2.73%; inhibition at 10 µM (NCI-H522): 5.55%; inhibition at 10 µM (ACHN): 1.9%; inhibition at 10 µM (MCF7): 6.01%; inhibition at 10 µM (SNB-75): 4.88%; inhibition at 10 µM (HOP-92): 6.83% |
| O=C1Nc2ccccc2C1=CNc1ccc(C(=O)Nc2nccs2)cc1 [Compound 9c, 4-{[(2-Oxoindolin-3-ylidene)methyl]amino}-N-(thiazol-2-yl)benzamide] | > 10 | > 300 | > 10000 | > 10000 | > 10 |  |  |  |  |  |
| O=C1Nc2ccccc2C1=CNc1ccc(CNc2nccs2)cc1 [Compound 11c, 3-{[(4-((Thiazol-2-ylamino)methyl)phenyl)amino]methylene}indolin-2-one] | > 10 | 150 to 153 | > 10000 | > 10000 | > 10 |  |  |  |  |  |
| NS(=O)(=O)c1ccc(NC=CC(=O)c2ccc(NC=C3C(=O)Nc4ccccc43)cc2)cc1 [Compound 13a, 4-{[-3-Oxo-3-(4-{[(-2-oxoindolin-3-ylidene)methyl]amino}phenyl)prop-1-en-1-yl]amino}benzenesulfonamide] | 0.307 | 275 to 278 | 183 | 91.3 | 0.483 | 2.64 | 1.68 | 5.29 | 3.36 |  |
| NS(=O)(=O)c1ccc(NC(=O)Nc2ccc(NC=C3C(=O)Nc4ccccc43)cc2)cc1 [Compound 15a, 4-{3-[4-({[2-Oxoindolin-3-ylidene]methyl}amino)phenyl]ureido}benzenesulfonamide] | 0.762 |  | 175 | 863 | 0.845 | 4.83 | 4.36 | 0.98 | 0.88 |  |
| O=C(Nc1ccc(NC=C2C(=O)Nc3ccccc32)cc1)Nc1ccc(S(=O)(=O)Nc2ncccn2)cc1 [Compound 15b, 4-{3-[4-({[2-Oxoindolin-3-ylidene]methyl}amino)phenyl]ureido}-N-(pyrimidin-2-yl)benzenesulfonamide] | > 10 | > 300 | > 10000 | > 10000 | > 10 |  |  |  |  | inhibition at 10 µM (UO-31): 18.3%; inhibition at 10 µM (EKVX): 1.92%; inhibition at 10 µM (CAKI-1): 5.21%; inhibition at 10 µM (NCI-H23): 72.8%; inhibition at 10 µM (HOP-62): 1.01%; inhibition at 10 µM (HCT-116): 7.3%; inhibition at 10 µM (NCI-H226): 3.3%; inhibition at 10 µM (PC-3): 5.91%; inhibition at 10 µM (T-47D): 7.81%; inhibition at 10 µM (NCI-H522): 4.97%; inhibition at 10 µM (SR): 3.55%; inhibition at 10 µM (KM12): 49.1%; inhibition at 10 µM (HCT-15): 2.59%; inhibition at 10 µM (MCF7): 15%; inhibition at 10 µM (SN12C): 1.23%; inhibition at 10 µM (SK-MEL-5): 0.02%; inhibition at 10 µM (K-562): 2.05%; inhibition at 10 µM (SNB-75): 1.02%; inhibition at 10 µM (HOP-92): 5.79% |
| O=C1Nc2ccc(Cl)cc2/C1=N/Nc1nc(-c2ccccc2)cs1 [XIV] |  |  |  |  |  |  |  |  |  | IC50 [1]: 4.66 µM |
| Cc1ccc(C(=O)Nc2ccc(CN3CCN(C)CC3)c(C(F)(F)F)c2)cc1C#Cc1cnc2cccnn12 [ponatinib] |  |  |  |  |  |  |  |  |  | IC50 (FGFRI): 0.7 nM |
